System: A2058 cancer cells
Experiment: pEGFP-N3 polyplex transfection of A2058 cells, light microscopy
Assay type: cell-based
Details: 72 h; SO1861-EMCH or SO1861 = 40 nM supplemented to PAMAM G5-(PEG N3)3.5 polyplexes
Experimental: Spectrophotometry: Concentrations were determined using either a Thermo Nanodrop 2000 spectrometer or Perkin Elmer Lambda 365 Spectrophotometer. DLS measurements: DLS measurements were performed on a Malvern Nano ZS (Malvern Instruments, U.K.), operating at 633 nm with a 173° scattering angle, at 25 or 37° C. DLS mean diameters were obtained from the intensity particle size distribution provided by Malvern Zetasizer Software. DLS histograms were obtained from the intensity particle size distributions. Zeta-potential: The zeta-potential values of the polyplexes were obtained by laser doppler anemometry (LDA), measuring the mean electrophoretic mobility (Malvern Zetasizer Nano ZS, Malvern Instruments, U.K.). Measurements were performed in 10 mM HEPES pH 7.1, 150 mM NaCl. TEM measurements: TEM measurements were performed on a JEOL JEM-1011 operated at 100 kV electron microscope, equipped with a camera S5 MegaView G2. […] Infrared Spectroscopy: FT-IR spectra were recorded on a Bruker Vertex 70v, equipped with a RockSolid interferometer, after preparing the samples (1-2 mg) as KBr pellets. […] NMR Spectroscopy: 1H NMR spectra were recorded on a 11.7 T Bruker DRX-500 spectrometer. […] Experiments were recorded acquiring 64-512 scans, with a pre-scan delay (d1) of 12 s, and an acquisition time (aq) of 4 s at 300 K. 13C NMR spectrum was recorder on a 9.39 T Varian Innova 400 spectrometer. […]

In the case of `CC(=O)OC1C(C)OC(OC2C(C)OC(OC(=O)[C@]34CCC(C)(C)CC3C3=CCC5[C@@]6(C)CC[C@H](OC7OC(C(=O)O)C(O)C(OC8OCC(O)C(O)C8O)C7OC7OC(CO)C(O)C(O)C7O)[C@@](C)(/C=N/NC(=O)CCCCCN7C(=O)C=CC7=O)C6CC[C@@]5(C)[C@]3(C)C[C@H]4O)C(OC3OC(C)C(OC4OCC(O)C(OC5OC(CO)C(O)C(O)C5O)C4O)C(O)C3O)C2O)C(O)C1OC1OCC(O)C(O)C1O` (stereo partly shown) [SO1861-EMCH], the “pEGFP-N3 transfection (eGFP expression)” value is reported as “marginal transfection”.
